Read-outs that look alike come from different tables or passages of the source.
Assays:
[1] = Steady state oral/IV rat PK and compound penetration into spine and brain (Example 16); format: in vivo, Sprague-Dawley rats; details: for concentration at 5 h / AUC(0-inf) / AUC(0-t) / half-life / Cmax: male, Sprague-Dawley; for AUC(0-inf) / AUC(0-t) / half-life / Cmax: plasma
Excerpt: It is important if one is observing biochemical effects in the spine and brain that one is able to show clear evidence that the compound being tested is in fact able to penetrate to those areas of the body. The present example orally doses compound 118 once per day (SID) for three days to a series of rats. On the third after dosing the rats were then sacrificed after taking blood samples and the level of compound measured in the spine and brain.
Procedure: Twelve (12) male Sprague-Dawley rats were used. Fasting was conducted at least 16 hours prior to dose administration. The animals were placed into 4 groups of 3 animals per group. There was one intravenous (IV) group and three oral gavage (PO) groups (10 mg/Kg, 20 mg/Kg & 40 mg/Kg). The oral (PO) formulation for Groups 2-4 were prepared on the day of dosing at a target concentration of 0.5 mg/mL in 0.5% Methylcellulose (400 cps) to produce a white, homogeneous suspension. The study design is outlined in Table 4:
[…] […] All blood samples were immediately placed on ice until processing. Whole blood samples were centrifuged at 2200×g for 10 minutes in a refrigerated centrifuge (5±3° C.) to isolate plasma. The plasma samples were transferred to individual polypropylene vials and immediately placed on dry ice before storage at nominally −20±5° C. The plasma samples sometime later were then thawed and extracted and analyzed by high pressure liquid chromatography (HPLC) coupled to Mass Spectrometery (MS). Pharmacokinetic parameters were estimated using WinNonlin® pharmacokinetic software (Version No. 5.2.1) using a non-compartmental approach consistent with the PO route of administration. The rodents were then sacrificed. On Day 3, five hours after dosing, animals were euthanized and whole brain and spine were removed, washed with saline and flash frozen until storage at nominally −70° C. before transfer for concentration analysis. The plasma, brain and spinal tissue samples were analyzed for test article concentration using a Research Grade LC-MS/MS Assay.

[2] = In-vivo oral PK of Compound 118 in SOD-1 mice (Example 19); set-up: species or system SOD-1-G93A (SOD-1) mice; details: for AUC / Cmax: SOD-1-G93A, mouse, po, PO 200 mg/Kg for 3 days
Description: The present example orally doses compound 118 once per day (SID) or twice per day (BID) for three days to a series of mice that have overexpression for the protein copper-zinc superoxide dismutase 1. Compound 118 was orally dosed in SOD-1-G93A (SOD-1) mice in a PK study. In summary, SOD-1 mice (At P100±4 days of age) received twice daily (BID) or once daily (SID) oral administration of 200 mg/Kg Compound 118 (as an aqueous suspension in 0.5% methylcellulose) for 3 days (Table 6). Plasma was collected from the tail vein at baseline (pre-dose), 15 min, 30 min, 1 h, 2 h, 4 h post-last PO dose on the third day. One animal from each group was euthanized 2 hrs. post dose on the third day of dosing where plasma, spinal cord, and brain tissue was collected post-mortem. The remaining 3 animals per group was euthanized six hours after the final dose on the third day, plasma, spinal cord, and brain tissue was then collected post-mortem. […] There was a significant difference in clearance of Compound 118 within plasma between male and female SOD-1 mice. […] Given the sex difference in clearance, it will be necessary to increase the amount that male SOD-1 mice are dosed compared to females SOD-1 mice in order maintain parity in exposure between the sexes.

[3] = system: SOD-1 overexpression in Drosophila motor neurons; assay: SOD-1 Drosophila model of ALS, larval turning read-out (Example 24); format: in vivo; details: 1 microMolar, SOD-1 (wild-type and G85R) overexpression, vs. DMSO vehicle
Description: Procedure: Following the method of Zarnescu and coworkers (Human Molecular Genetics, 24(6), 1741-1754, 2015). UAS SOD-1 male Drosophila flies were crossed with D42-Gal4 female virgins on fly food containing either DMSO or 1% Compound 118 in dimethyl sulfoxide (DMSO). For DMSO controls, the same volume of DMSO as the corresponding Compound 118 concentration was added. Bromophenol blue was added to a final concentration of around 0.02% to ensure homogeneity. Crosses were made on drug food with three female virgins and two males in each vial and were maintained at 25° C. unless noted. The parents were discarded after 5-7 days and then the vials were screened for adult progeny with straight wings from Day 14 to Day 25. All adults were screened for SOD-1 expression. Read-outs involved the larval turning assay.
SOD-1^wt=Wild-type, SOD1^G85R=Diseases associated G85R mutant expressed in motor neurons. […], ***p<0.001 as compared to DMSO vehicle.

[4] = rat, iv, 1 mg/kg, DAY 1, 1 mg/kg IV
[5] = rat, iv, 1 mg/kg, DAY 2, 1 mg/kg IV once per day
[6] = rat, iv, 1 mg/kg, DAY 3, 1 mg/kg IV once per day
[7] = rat, po, 10 mg/kg, DAY 1, 10 mg/kg PO
[8] = rat, po, 10 mg/kg, DAY 2, 10 mg/kg PO once per day
[9] = rat, po, 10 mg/kg, DAY 3, 10 mg/kg PO once per day
[10] = rat, po, 20 mg/kg, DAY 1, 20 mg/kg PO
[11] = rat, po, 20 mg/kg, DAY 2, 20 mg/kg PO once per day
[12] = rat, po, 20 mg/kg, DAY 3, 20 mg/kg PO once per day
[13] = rat, po, 40 mg/kg, DAY 1, 40 mg/kg PO
[14] = rat, po, 40 mg/kg, DAY 2, 40 mg/kg PO once per day
[15] = rat, po, 40 mg/kg, DAY 3, 40 mg/kg PO once per day
[16] = female, plasma, 200 mg/kg, Female SOD-1 mice, BID
[17] = female, plasma, 200 mg/kg, Female SOD-1 mice, SID
[18] = male, plasma, 200 mg/kg, Male SOD-1 mice, BID
[19] = male, plasma, 200 mg/kg, Male SOD-1 mice, SID

Compound: [2H]C([2H])([2H])c1ccc(C#Cc2ccc(S(=O)(=O)N[C@H](Cc3c[nH]c4ccccc34)C(=O)O)s2)cc1 [Compound 118, (R)-3-(1H-Indol-3-yl)-2-[5-(4-trideuteromethyl-phenylethynyl)-thiophene-2-sulfonylamino]-propionic acid-(D3, 98%)]
- dose linearity in plasma ([1]; 10, 20 and 40 mg/Kg oral doses, rat): exhibited dose linearity in plasma
- concentration at 5 h ([1]; brain, 10-40 mg/Kg daily oral dose, Day 3, rat, highest level at 40 mg/Kg, read-out: Compound level in the brain): 30 to 84 ng/mL
- concentration at 5 h ([1]; rat, brain, Day 3, five hours after dosing, 10 mg/kg PO once per day, read-out: Brain): 30.2 ng/mL
- concentration at 5 h ([1]; rat, brain, Day 3, five hours after dosing, 20 mg/kg PO once per day, read-out: Brain): 42.1 ng/mL
- concentration at 5 h ([1]; rat, brain, Day 3, five hours after dosing, 40 mg/kg PO once per day, read-out: Brain): 84.6 ng/mL
- AUC(0-inf) [1, 4]: 1820 ng·h/mL
- AUC(0-t) [1, 4]: 1810 ng·h/mL
- half-life [1, 4]: 0.97 h
- AUC(0-inf) [1, 5]: 1170 ng·h/mL
- AUC(0-t) [1, 5]: 1170 ng·h/mL
- half-life [1, 5]: 0.936 h
- AUC(0-inf) [1, 6]: 1720 ng·h/mL
- AUC(0-t) [1, 6]: 1650 ng·h/mL
- half-life [1, 6]: 0.89 h
- AUC(0-inf) [1, 7]: 3880 ng·h/mL
- AUC(0-t) [1, 7]: 3770 ng·h/mL
- Cmax [1, 7]: 1170 ng/mL
- half-life [1, 7]: 1.29 h
- AUC(0-inf) [1, 8]: 4480 ng·h/mL
- AUC(0-t) [1, 8]: 4390 ng·h/mL
- Cmax [1, 8]: 1340 ng/mL
- half-life [1, 8]: 1.24 h
- AUC(0-inf) [1, 9]: 12600 ng·h/mL
- AUC(0-t) [1, 9]: 4010 ng·h/mL
- Cmax [1, 9]: 1450 ng/mL
- half-life [1, 9]: 1.59 h
- AUC(0-inf) [1, 10]: 6520 ng·h/mL
- AUC(0-t) [1, 10]: 6410 ng·h/mL
- Cmax [1, 10]: 2140 ng/mL
- half-life [1, 10]: 1.2 h
- AUC(0-inf) [1, 11]: 4730 ng·h/mL
- AUC(0-t) [1, 11]: 4650 ng·h/mL
- Cmax [1, 11]: 2150 ng/mL
- half-life [1, 11]: 1.28 h
- AUC(0-inf) [1, 12]: 10100 ng·h/mL
- AUC(0-t) [1, 12]: 8820 ng·h/mL
- Cmax [1, 12]: 3850 ng/mL
- half-life [1, 12]: 1.02 h
- AUC(0-inf) [1, 13]: 15800 ng·h/mL
- AUC(0-t) [1, 13]: 15600 ng·h/mL
- Cmax [1, 13]: 5020 ng/mL
- half-life [1, 13]: 1.01 h
- AUC(0-inf) [1, 14]: 12200 ng·h/mL
- AUC(0-t) [1, 14]: 12200 ng·h/mL
- Cmax [1, 14]: 5570 ng/mL
- half-life [1, 14]: 1.02 h
- AUC(0-inf) [1, 15]: 15800 ng·h/mL
- AUC(0-t) [1, 15]: 15600 ng·h/mL
- Cmax [1, 15]: 5020 ng/mL
- half-life [1, 15]: 1.01 h
- concentration at 5 h ([1]; rat, spine, Day 3, five hours after dosing, 10 mg/kg PO once per day, read-out: Spine): 15.6 ng/mL
- concentration at 5 h ([1]; rat, spine, Day 3, five hours after dosing, 20 mg/kg PO once per day, read-out: Spine): 18.3 ng/mL
- concentration at 5 h ([1]; rat, spine, Day 3, five hours after dosing, 40 mg/kg PO once per day, read-out: Spine): 31 ng/mL
- concentration at 5 h ([1]; spine, 10-40 mg/Kg daily oral dose, Day 3, rat, highest level at 40 mg/Kg, read-out: Compound level in the spine): 15 to 31 ng/mL
- AUC in Female SOD-1 mice relative to male SOD-1 mice ([2]; 200 mg/Kg PO, plasma): 3-4 times
- concentration in the spinal cord ([2]; SOD-1 mice, 200 mg/Kg PO, T=2 hour from last dose on third day): 200-400 ng of AQU-118/gram spinal tissue
- oral bioavailability in plasma ([2]; SOD-1 mice, 200 mg/Kg PO, 200 mg/kg): good oral bioavailability
- oral bioavailability in plasma ([2]; SOD-1 mice, 200 mg/Kg PO, listed as AQU-118, 200 mg/kg): good bioavailability in plasma
- AUC [2, 16]: 394000 ng·h/mL
- Cmax [2, 16]: 111000 ng/mL
- AUC [2, 17]: 342000 ng·h/mL
- Cmax [2, 17]: 96000 ng/mL
- AUC [2, 18]: 115000 ng·h/mL
- Cmax [2, 18]: 39200 ng/mL
- AUC [2, 19]: 121000 ng·h/mL
- Cmax [2, 19]: 44500 ng/mL
- locomotive defects via larval turning times [3]: able to mitigate locomotive defects
